In US12441768B2, “Compositions and methods for treating endometriosis” (EndoMet Biosciences, Inc., priority 2018, dated 2025):
Read-outs that look alike come from different tables or passages of the source. Where a SMILES comes first, the peptide text is derived from it. [ ]: non-standard residue; d: D form. The star is where a group is joined. ξ: configuration not given here. NMeW = CN[C@@H](Cc1c[nH]c2ccccc12)C(=O)O; Palmitoyl = CCCCCCCCCCCCCCCC(=O)*; ξαMeV = CC(C)C(C)(N)C(=O)O; ξαMeS = CC(N)(CO)C(=O)O

Assays:
[1] = % Viability non-Wnt responsive cells
[2] = molecular target: Wnt-responsive promoter (TCF/LEF); assay: Wnt-dependent luciferase reporter assay; assay type: cell-based, murine
In short: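 Murine 3T3 fibroblasts carrying a TCF/LEF-driven luciferase reporter, stimulated with Wnt3a in the presence of increasing peptide concentrations or vehicle. Luminescence inhibition gave EC50 values in uM.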

β-catenin = molecular target: T1, β-catenin (Homo sapiens, UniProt P35222); assay: KD50 measurement using competitive fluorescence polarization (FP) with labelled TCF4; assay type: binding; conditions: fluorescence polarization, β-catenin
T1 sequence (P35222 1-781): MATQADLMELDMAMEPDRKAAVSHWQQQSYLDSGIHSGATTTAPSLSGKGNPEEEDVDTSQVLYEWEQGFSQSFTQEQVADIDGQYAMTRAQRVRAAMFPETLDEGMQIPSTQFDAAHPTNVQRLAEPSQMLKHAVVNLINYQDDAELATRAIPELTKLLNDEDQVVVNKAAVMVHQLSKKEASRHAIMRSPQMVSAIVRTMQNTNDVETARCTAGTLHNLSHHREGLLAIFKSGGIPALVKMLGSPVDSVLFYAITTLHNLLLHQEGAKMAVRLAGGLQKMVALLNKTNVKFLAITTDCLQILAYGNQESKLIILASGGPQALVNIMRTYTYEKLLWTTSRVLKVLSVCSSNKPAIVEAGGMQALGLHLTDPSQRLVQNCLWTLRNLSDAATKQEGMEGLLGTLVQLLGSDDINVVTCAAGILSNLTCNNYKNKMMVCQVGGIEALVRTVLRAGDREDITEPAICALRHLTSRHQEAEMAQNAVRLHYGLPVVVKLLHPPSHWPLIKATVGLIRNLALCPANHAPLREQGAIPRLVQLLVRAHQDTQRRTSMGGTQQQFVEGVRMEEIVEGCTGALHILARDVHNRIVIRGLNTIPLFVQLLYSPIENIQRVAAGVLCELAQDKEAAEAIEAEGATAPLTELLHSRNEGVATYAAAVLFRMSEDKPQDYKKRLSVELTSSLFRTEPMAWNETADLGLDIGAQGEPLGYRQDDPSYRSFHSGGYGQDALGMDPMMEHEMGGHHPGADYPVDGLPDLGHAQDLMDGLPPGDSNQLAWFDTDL
In short: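 Labelled TCF4 (5 nM) mixed with 100 nM β-catenin at room temperature; inhibitor added as serial dilutions from 10 nM to 30 uM. Polarization read at excitation 470 nm/emission 520 nm; binding displacement lowers polarization. Three independent runs.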

| SMILES | viability [1] [%] | EC50 [2] [µM] | Kd (β-catenin; read-out: β-Cat FP KD) [µM] | β-Cat FP Hill slope (β-catenin) | Kd (β-catenin; β-Cat FP KD) [µM] |
| --- | --- | --- | --- | --- | --- |
| CC[C@H](C)[C@H](NC(=O)[C@H](CC(C)C)NC(=O)[C@H](Cc1ccccc1)NC(=O)[C@H](Cc1c[nH]c2ccccc12)NC(=O)[C@H](CCSC)NC(=O)[C@H](CCCNC(=N)N)NC(=O)[C@H](CO)NC(=O)[C@@H](N)CCSC)C(=O)N[C@@H](CS)C(=O)N[C@@H](Cc1ccccc1)C(=O)N[C@@H](Cc1c[nH]c2ccccc12)C(=O)NCC(=O)O [compound 46] (H-MSRMWFLICFWG-OH) | 101 | < 7.5 |  |  |  |
| CC[C@H](C)[C@H](NC(=O)[C@H](CC(C)C)NC(=O)[C@H](Cc1ccccc1)NC(=O)[C@H](Cc1c[nH]c2ccccc12)NC(=O)[C@@H](N)CCSC)C(=O)N[C@@H](CS)C(=O)N[C@@H](Cc1ccccc1)C(=O)N[C@@H](Cc1c[nH]c2ccccc12)C(=O)N(C)CC(=O)O [compound 213] (HELM PEPTIDE1{M.W.F.L.I.C.F.W.[Sar]}$$$$V2.0) | 112 |  | 1 to 10 |  |  |
| CC[C@H](C)[C@H](NC(=O)[C@H](CC(C)C)NC(=O)[C@@H](NC(=O)[C@H](Cc1c[nH]c2ccccc12)NC(=O)[C@H](CCSC)NC(C)=O)[C@@H](C)CC)C(=O)N[C@@H](CO)C(=O)N[C@@H](Cc1ccccc1)C(=O)N[C@@H](Cc1c[nH]c2ccccc12)C(=O)N(C)CC(=O)O [compound 221] (HELM PEPTIDE1{[ac].M.W.I.L.I.S.F.W.[Sar]}$$$$V2.0) | 101 |  | < 0.4 |  |  |
| CC[C@H](C)[C@@H]1NC(=O)[C@@H](NC(=O)[C@H](CCC(N)=O)NC(=O)[C@H](C)N(C)C(=O)[C@@H](N)Cc2c[nH]c3ccccc23)CCCCNC(=O)CC[C@@H](C(=O)N[C@@H](Cc2c[nH]cn2)C(=O)N[C@H](C(=O)N[C@@H](CCC(N)=O)C(=O)N[C@@H](CCCNC(=N)N)C(=O)N[C@H](C(=O)N[C@@H](Cc2c[nH]c3ccccc23)C(=O)NCC(N)=O)C(C)C)C2CCCCC2)NC(=O)[C@H](CC(=O)O)NC(=O)[C@H](CC(C)C)NC1=O [compound 403] (HELM PEPTIDE1{W.[meA].Q.K.I.L.D.E.H.[O=C([C@@H](N[*:1])C1CCCCC1)[*:2]].Q.R.V.W.G.[am]}$PEPTIDE1,PEPTIDE1,4:R3-8:R3$$$V2.0) |  | > 30 | < 0.4 | 0.76 |  |
| CCCCCCCCCCCCCCCC(=O)N[C@@H](Cc1c[nH]c2ccccc12)C(=O)N(C)[C@@H](Cc1c[nH]c2ccccc12)C(=O)N[C@@H](CCC(=O)O)C(=O)NC(C)(CO)C(=O)N[C@H](C(=O)N[C@@H](CC(C)C)C(=O)N[C@@H](CC(=O)O)C(=O)N[C@@H](CCC(=O)O)C(=O)N[C@@H](Cc1c[nH]cn1)C(=O)NC(C)(C(=O)N[C@@H](CCC(N)=O)C(=O)N[C@@H](CCCNC(=N)N)C(=O)N[C@H](C(=O)N[C@@H](Cc1c[nH]c2ccccc12)C(=O)O)C(C)C)C(C)C)[C@@H](C)CC (some centres unmarked) [compound 397] (Palmitoyl-W[NMeW]E[ξαMeS]ILDEH[ξαMeV]QRVW-OH) |  | 7.5 to 15 | > 30 |  |  |
| CC[C@H](C)[C@@H]1NC(=O)[C@@H](NC(=O)[C@H](CCC(N)=O)NC(=O)[C@@H]2CCCN2C(=O)[C@H](Cc2c[nH]c3ccccc23)NC(=O)[C@H](CCCNC(=N)N)NC(C)=O)CCCCNC(=O)CC[C@@H](C(=O)N[C@@H](Cc2c[nH]cn2)C(=O)N[C@H](C(=O)N[C@@H](CCCNC(=N)N)C(=O)N[C@@H](CCCNC(=N)N)C(=O)N[C@H](C(=O)N[C@@H](Cc2c[nH]c3ccccc23)C(=O)N[C@@H](CCCNC(=N)N)C(N)=O)C(C)C)C(C)C)NC(=O)[C@H](CC(=O)O)NC(=O)[C@H](CC(C)C)NC1=O [compound 428] (HELM PEPTIDE1{[ac].R.W.P.Q.K.I.L.D.E.H.V.R.R.V.W.R.[am]}$PEPTIDE1,PEPTIDE1,6:R3-10:R3$$$V2.0) |  | > 30 | < 0.4 | 0.94 |  |
| CC[C@H](C)[C@@H]1NC(=O)[C@@H](NC(=O)[C@H](CCC(N)=O)NC(=O)[C@H](C)N(C)C(=O)[C@H](Cc2c[nH]c3ccccc23)NC(C)=O)CCCCNC(=O)C[C@@H](C(=O)N[C@@H](Cc2c[nH]cn2)C(=O)N[C@H](C(=O)N[C@@H](CCC(N)=O)C(=O)N[C@@H](C)C(=O)N[C@H](C(N)=O)C(C)C)C2CCCCC2)NC(=O)[C@H](CC(N)=O)NC(=O)[C@H](CC(C)C)NC1=O [compound 452] (HELM PEPTIDE1{[ac].W.[meA].Q.K.I.L.N.D.H.[O=C([C@@H](N[*:1])C1CCCCC1)[*:2]].Q.A.V.[am]}$PEPTIDE1,PEPTIDE1,5:R3-9:R3$$$V2.0) |  | 15 to 22.5 |  | 0.7 | 0.4 to 1 |
| CC[C@H](C)[C@@H]1NC(=O)[C@@H](NC(=O)[C@H](CCC(N)=O)NC(=O)C(C)(C)NC(=O)[C@H](Cc2c[nH]c3ccccc23)NC(C)=O)CCCCNC(=O)CC[C@@H](C(=O)N[C@@H](Cc2c[nH]cn2)C(=O)N[C@H](C(=O)N[C@@H](CCC(N)=O)C(=O)N[C@@H](CCCNC(=N)N)C(=O)N[C@H](C(=O)N[C@@H](Cc2c[nH]c3ccccc23)C(=O)NCC(N)=O)C(C)C)C2CCCCC2)NC(=O)[C@H](CC(=O)O)NC(=O)[C@H](CC(C)C)NC1=O [compound 443] (HELM PEPTIDE1{[ac].W.[Aib].Q.K.I.L.D.E.H.[O=C([C@@H](N[*:1])C1CCCCC1)[*:2]].Q.R.V.W.G.[am]}$PEPTIDE1,PEPTIDE1,5:R3-9:R3$$$V2.0) |  | 7.5 to 15 | < 0.4 | 0.86 |  |
| CC[C@H](C)[C@H](NC(=O)C(C)(CO)NC(=O)[C@H](CCC(=O)O)NC(=O)[C@H](Cc1c[nH]c2ccccc12)NC(=O)[C@@H](N)CCSC)C(=O)N[C@@H](CC(C)C)C(=O)N[C@@H](CC(=O)O)C(=O)N[C@@H](CCC(=O)O)C(=O)N[C@@H](Cc1c[nH]cn1)C(=O)N[C@H](C(=O)N[C@@H](CCC(N)=O)C(=O)N[C@@H](CCCNC(=N)N)C(=O)N[C@H](C(=O)N[C@@H](Cc1c[nH]c2ccccc12)C(=O)NCC(N)=O)C(C)C)C(C)C (some centres unmarked) [compound 35] (HELM PEPTIDE1{M.W.E.[CC(CO)(N[*:1])C(=O)[*:2]].I.L.D.E.H.V.Q.R.V.W.G.[am]}$$$$V2.0) |  | > 30 | < 0.4 | 0.96 |  |
| CC[C@H](C)[C@H](NC(=O)[C@@H](NC(=O)[C@H](CCC(N)=O)NC(=O)[C@@H]1CCCN1C(=O)[C@H](CC(=O)O)NC(=O)[C@H](CCC(=O)O)NC(=O)[C@H](CCC(=O)O)NC(=O)CCNC(C)=O)[C@@H](C)O)C(=O)N[C@@H](CC(C)C)C(=O)N[C@@H](CC(=O)O)C(=O)N[C@@H](CC(=O)O)C(=O)N[C@@H](Cc1c[nH]cn1)C(=O)N[C@@H](CC(C)C)C(=O)N[C@@H](CO)C(=O)N[C@@H](CCCNC(=N)N)C(=O)N[C@H](C(=O)N[C@@H](CC(C)C)C(=O)N[C@@H](CCCCN)C(N)=O)C(C)C [compound 412] (HELM PEPTIDE1{[ac].[bAla].E.E.D.P.Q.T.I.L.D.D.H.L.S.R.V.L.K.[am]}$$$$V2.0) |  | > 30 | 1 to 10 | 0.7 |  |
| CC[C@H](C)[C@H](NC(=O)[C@H](CO)NC(=O)[C@H](CCC(N)=O)NC(=O)[C@@H]1CCCN1C(=O)[C@H](Cc1c[nH]c2ccccc12)NC(C)=O)C(=O)N[C@@H](CC(C)C)C(=O)N[C@@H](CC(=O)O)C(=O)N[C@H]1CCC(=O)NCCCC[C@@H](C(=O)N[C@H](C(=O)N[C@@H](Cc2c[nH]c3ccccc23)C(=O)NCC(N)=O)C(C)C)NC(=O)[C@H](CCC(N)=O)NC(=O)[C@H](C2CCCCC2)NC(=O)[C@H](Cc2c[nH]cn2)NC1=O [compound 472] (HELM PEPTIDE1{[ac].W.P.Q.S.I.L.D.E.H.[O=C([C@@H](N[*:1])C1CCCCC1)[*:2]].Q.K.V.W.G.[am]}$PEPTIDE1,PEPTIDE1,9:R3-13:R3$$$V2.0) |  | 7.5 to 15 | < 0.4 | 0.89 |  |
| CC[C@H](C)[C@@H]1NC(=O)[C@@H](NC(=O)[C@H](CCC(N)=O)NC(=O)[C@H](C)N(C)C(=O)[C@H](Cc2c[nH]c3ccccc23)NC(C)=O)CCCCNC(=O)CC[C@@H](C(=O)N[C@@H](Cc2c[nH]cn2)C(=O)N[C@H](C(=O)N[C@@H](CCC(N)=O)C(=O)N[C@@H](CCCNC(=N)N)C(=O)N[C@H](C(=O)N[C@@H](Cc2c[nH]c3ccccc23)C(=O)NCC(N)=O)C(C)C)C(C)C)NC(=O)[C@H](CC(=O)O)NC(=O)[C@H](CC(C)C)NC1=O [compound 402] (HELM PEPTIDE1{[ac].W.[meA].Q.K.I.L.D.E.H.V.Q.R.V.W.G.[am]}$PEPTIDE1,PEPTIDE1,5:R3-9:R3$$$V2.0) |  | > 30 | < 0.4 | 0.7 |  |
